Data: ChEMBL document CHEMBL3585341, “-Heteroarylalkylcarbamates as inhibitors of fatty acid amide hydrolase (FAAH)” (Medchemcomm, 2014)
Calls of active or inactive are those of the source. The rule behind the calls is not given here.

Tests used:
[1] = species: Sus scrofa; assay: Inhibition of porcine platelet cPLA2alpha using co-vesicles consisting 1-stearoyl-2-arachidonoyl-sn-glycero-3-phosphocholine and 1,2-dioleoyl-sn-glycerol as substrate assessed as arachidonic acid release at 10 uM after 60 mins by reverse phase HPLC with UV-detection method
[2] = Metabolic stability in rat liver S9 fractions assessed as remaining compound after 30 mins by reverse phase HPLC with UV-detection method in presence of NADPH; format: ADME, subcellular, Liver S9 fraction; settings: read-out: Stability
[3] = Metabolic stability in porcine plasma assessed as remaining compound at […] after 30 mins by reverse phase HPLC with UV-detection method; format: ADME, cell-free, Sus scrofa; settings: pig, read-out: Stability
[4] = biological target: T1, Monoglyceride lipase (Homo sapiens) (UniProt Q99685); assay: Inhibition of human recombinant MAGL using […] 4-pyren-1-yl butanoate as substrate at 10 uM preincubated for 15 mins with substrate followed by protein addition measured after 45 mins by reverse phase HPLC with fluorescence detection method
T1 sequence (whole entry): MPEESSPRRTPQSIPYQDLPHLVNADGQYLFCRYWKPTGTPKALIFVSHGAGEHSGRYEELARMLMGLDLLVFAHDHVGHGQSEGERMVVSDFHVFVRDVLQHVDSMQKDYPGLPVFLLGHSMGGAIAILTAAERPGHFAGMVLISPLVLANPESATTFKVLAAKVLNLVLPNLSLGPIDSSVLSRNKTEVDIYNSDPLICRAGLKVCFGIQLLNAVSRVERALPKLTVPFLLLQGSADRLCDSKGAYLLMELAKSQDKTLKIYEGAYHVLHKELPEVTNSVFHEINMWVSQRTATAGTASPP

[5] = biological target: T2, Fatty-acid amide hydrolase 1 (Rattus norvegicus, UniProt P97612); assay: (§1) Inhibition of Sprague-Dawley rat brain microsomal FAAH using N-(2-hydroxyethyl)-4-pyren-1-ylbutanamide as substrate assessed as 4-pyren-1-ylbutanoic acid release preincubated for 10 mins with substrate followed by protein addition measured after 60 mins by reverse phase HPLC with fluorescence detection method
T2 sequence (P97612 whole entry): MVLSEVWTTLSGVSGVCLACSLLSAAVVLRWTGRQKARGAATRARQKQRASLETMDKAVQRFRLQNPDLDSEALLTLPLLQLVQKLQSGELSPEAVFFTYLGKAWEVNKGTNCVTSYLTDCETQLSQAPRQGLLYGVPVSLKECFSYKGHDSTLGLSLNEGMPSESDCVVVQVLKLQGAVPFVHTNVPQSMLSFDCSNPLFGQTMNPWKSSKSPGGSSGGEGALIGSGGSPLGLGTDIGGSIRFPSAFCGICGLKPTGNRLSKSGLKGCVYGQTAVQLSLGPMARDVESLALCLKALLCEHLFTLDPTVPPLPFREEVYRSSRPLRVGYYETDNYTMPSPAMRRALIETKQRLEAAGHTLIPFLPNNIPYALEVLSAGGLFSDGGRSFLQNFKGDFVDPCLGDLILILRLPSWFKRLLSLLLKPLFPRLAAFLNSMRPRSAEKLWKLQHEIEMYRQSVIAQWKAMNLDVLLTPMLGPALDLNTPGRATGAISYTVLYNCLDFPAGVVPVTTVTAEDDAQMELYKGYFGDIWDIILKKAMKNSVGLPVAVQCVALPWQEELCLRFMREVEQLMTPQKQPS

[6] = biological target: T3, Fatty-acid amide hydrolase 1 (Rattus norvegicus) (UniProt P97612); assay: as §1, with “release at 10 uM” for “release”
T3 sequence (whole entry): T2 sequence (P97612 whole entry)

NC(=O)c1cccc(-c2cccc(OC(=O)NC3CCCCC3)c2)c1 [URB-597]
inhibition [1]: inactive | remaining at 0.5 h [2]: 13% | remaining at 0.5 h [3]: 76%

O=C(NCCCCCCCn1ccc2ccccc21)Oc1ccccc1
inhibition [4]: inactive | inhibition [1]: inactive | IC50 [5]: 90 nM

O=C(NCCCCCCn1nnc2ccccc21)Oc1ccccc1
IC50 [5]: 810 nM

Cc1ccc(-c2ccccc2)n1CCCCCCNC(=O)Oc1ccccc1
IC50 [5]: 310 nM

O=C(NCCCCCCn1ccc2ccccc21)Oc1ccccc1
inhibition [4]: inactive | inhibition [1]: inactive | IC50 [5]: 250 nM

O=C(NCCCCCCn1cnc2ccccc21)Oc1ccccc1
IC50 [5]: 290 nM

O=C(NCCCCn1ccc2ccccc21)Oc1ccccc1
inhibition [4]: inactive | inhibition [1]: inactive | IC50 [5]: 960 nM

COC(=O)c1c(-c2ccccc2)c(-c2ccccc2)n(CCCCCCNC(=O)Oc2ccccc2)c1C
inhibition [6]: 21% | IC50 [5]: > 10000 nM

Cc1cc(-c2ccccc2)c(-c2ccccc2)n1CCNC(=O)Oc1ccccc1
inhibition [6]: inactive

Cc1cc(-c2ccccc2)c(-c2ccccc2)n1CCCCNC(=O)Oc1ccccc1
IC50 [5]: 6200 nM

O=C(NCCCCCCn1c(-c2ccccc2)cc2ccccc21)Oc1ccccc1
IC50 [5]: 520 nM

O=C(NCCCCCn1ccc2ccccc21)Oc1cccnc1
inhibition [1]: inactive | remaining at 0.5 h [2]: 43% | IC50 [5]: 3.6 nM | remaining at 0.5 h [3]: 0%

CC(=O)c1c(-c2ccccc2)c(-c2ccccc2)n(CCCCCCNC(=O)Oc2ccccc2)c1C
inhibition [6]: 33% | IC50 [5]: > 10000 nM

Cc1c(-c2ccccc2)cc(-c2ccccc2)n1CCCCCCNC(=O)Oc1ccccc1
IC50 [5]: 460 nM

Cc1cc(-c2ccccc2)c(-c2ccccc2)n1CCCCCCNC(=O)Oc1ccccc1
IC50 [5]: 2600 nM

O=C(NCCCCCCn1ccc2ccccc21)Oc1cccnc1
inhibition [1]: inactive | remaining at 0.5 h [2]: 47% | IC50 [5]: 5.2 nM | remaining at 0.5 h [3]: 0%

O=C(NCCCCCCn1c(-c2ccccc2)c(-c2ccccc2)c2ccccc21)Oc1ccccc1
IC50 [5]: 4700 nM

Cc1c(C#N)c(-c2ccccc2)c(-c2ccccc2)n1CCCCCCNC(=O)Oc1ccccc1
IC50 [5]: 8700 nM

O=C(NCCCCCCn1cc(-c2ccccc2)c2ccccc21)Oc1ccccc1
IC50 [5]: 4900 nM

Cc1nc(-c2ccccc2)c(-c2ccccc2)n1CCCCCCNC(=O)Oc1ccccc1
IC50 [5]: 350 nM

O=C(NCCCCCn1ccc2ccccc21)Oc1ccccc1
inhibition [4]: inactive | inhibition [1]: inactive | IC50 [5]: 94 nM

O=C(NCCCCCCn1ncc2ccccc21)Oc1ccccc1
IC50 [5]: 920 nM

O=C(NCCCCCCCCn1ccc2ccccc21)Oc1ccccc1
inhibition [4]: inactive | inhibition [1]: inactive | IC50 [5]: 240 nM
